One compound from paper PMC13112672, “The Drp1-CoQ10-Coa6-ETC axis represents a therapeutic potential for working memory impairment caused by neuronal mitochondrial dysfunction” (Translational Neurodegeneration, 2026) can be followed below.

Molecules are shown by their SMILES.

The assay has as its target T1, Coa6 (cytochrome c oxidase assembly factor 6) (Mus musculus, UniProt Q8BGD8).
T1 construct: E. coli BL21(DE3); Ni-bead purification (vector His tag, removal not mentioned)
T1 sequence (Q8BGD8 1-79): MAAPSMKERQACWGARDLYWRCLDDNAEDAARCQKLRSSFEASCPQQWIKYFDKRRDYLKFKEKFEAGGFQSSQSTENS
Nature of the assay: surface plasmon resonance (CM5 chip, immobilised Coa6). It is filed as binding. The note with it: analyte 0.39–25 μM CoQ10; protein amine-coupled, ~12,600 RU. Background: SPR reads the build-up and loss of mass on a sensor chip optically.

Broadly, the Kd is the equilibrium constant for the complex coming apart. Read a high Kd as lower affinity. `COC1=C(OC)C(=O)C(C/C=C(\C)CC/C=C(\C)CC/C=C(\C)CC/C=C(\C)CC/C=C(\C)CC/C=C(\C)CC/C=C(\C)CC/C=C(\C)CC/C=C(\C)CCC=C(C)C)=C(C)C1=O` [CoQ10] gave a Kd of 24 µM.
